Test results: patent publication US20240082313A1, “PHARMACEUTICAL COMPOSITIONS AND THEIR METHODS OF USE” (The Trustees of Indiana University, priority 2021, published 2024)
“Also recorded” adds a separate entry of the source.

Experiments:
[1] = system: human breast cancer and prostate cancer tissues; experiment: Ex vivo tissue assay; format: cell-based; conditions: breast (ER-positive and -negative) and prostate cancer tissue
Protocol: Ex vivo tissue assay. The usage of human breast cancer and prostate cancer tissues was approved by the Indiana University Institutional Review Board. Two human breast cancer tissues (˜1 g each; estrogen receptor-positive and -negative) and prostate cancer tissue (˜1 g), received from Simon Cancer Center Tissue Procurement Core, were manually fragmented with a scalpel into small pieces (0.5˜0.8 mm in length). These pieces were grown in DMEM with 10% fetal bovine serum and antibiotics for a day. iTS cell-derived conditioned medium was then added for three additional days, and a change in the fragment size was determined. BML284 (10 μM) or β-catenin (40 ng/μ1) was applied to tissue fragments and CM was prepared as described above.

EO771 cells [2] = experiment: In vivo extravasation assay; set-up: species or system mouse; conditions: EO771 cells via tail vein
From the text: (§1) Animal models. The experimental procedures using animals were approved by the Indiana University Animal Care and Use Committee and were complied with the Guiding Principles in the Care and Use of Animals endorsed by the American Physiological Society. Mice were housed five per cage and provided with mouse chow and water ad libitum. In the mouse model of mammary tumors, C57BL/6 female mice (˜8 weeks, Envigo RMS, Inc., Indianapolis, IN, USA) were randomly assigned into five groups (14 mice per group). The placebo groups received cells transfected with a negative control vector, and the negative control group received cells transfected with β-catenin overexpression vector. The three treatment groups received β-catenin overexpressing iTS CM, BML-treated cells, and BML-treated iTS CM. Each group received a subcutaneous injection of EO771 cells (3.0×10^5 cells in 50 μl PBS) to the mammary fat pad. For tibial osteolysis, C57BL/6 female mice (8 mice per group) received an intra-tibial injection of EO771 cells (2.5×10^5 cells in 20 μl PBS) to the right tibia. The treatment group received iTS cell-derived CM as an injection into the intraperitoneal cavity. The animals were sacrificed on day 18, and the weight of each tumor was measured. To evaluate the effects of CMs for tumor invasion, an in vivo extravasation assay was conducted. […]

EO771 cells [3] = experiment: Mouse model of mammary tumors; format: in vivo; conditions: EO771 cells in mammary fat pad
From the text: as §1

4T1.2 cells [4] = experiment: MTT-based viability; format: cell-based, mouse; conditions: 1 to 5 μM OAC2
4T1.2 cells [5] = experiment: Western blot analysis; format: cell-based, mouse; conditions: 4T1.2 cells, OAC2 treatment
Protocol: Western blot analysis. Cultured cells were lysed in a radio-immunoprecipitation assay (RIPA) buffer and proteins were fractionated by 10-15% SDS gels and electro-transferred to polyvinylidene difluoride (PVDF) transfer membranes (Millipore, Billerica, MA, USA). The membrane was incubated overnight with primary antibodies and then with secondary antibodies conjugated with horseradish peroxidase (Cell Signaling, Danvers, MA, USA). Antibodies against c-Myc, Oct4, Sox2, Klf4, Lrp5, Runx2, Snail, TGFβ, Eno1, Eef2, vinculin (Cell Signaling, Danvers, MA, USA), MMP9, NFATc1, cathepsin K (Santa Cruz, Dallas, TX, USA), TRAIL (Novus, Centennial, CO, USA), p53 (Invitrogen, Carlsbad, CA, USA), Hsp90ab1 (Abcam, Cambridge, UK), Kdm3a (Thermo-Fisher Scientific, Waltham, MA, USA) and β-actin as a control (Sigma, St. Louis, MO, USA) were employed. The level of proteins was determined using a SUPERSIGNAL™ west femto maximum sensitivity substrate (Thermo-Fisher Scientific, Waltham, MA, USA), and a luminescent image analyzer (LAS-3000, Fuji Film, Tokyo, Japan) was used to quantify signal intensities.

4T1.2 cells [6] = experiment: Mouse model of a mammary tumor; format: in vivo; conditions: BALB/c mice, daily intraperitoneal injection of 10 mg/kg OAC2

Compound | size of cancer tissue fragments [1] | number of tumor cells in the lung (EO771 cells [2]) | tumor weight (EO771 cells [3]) | MTT-based viability / proliferation of tumor cells, direct application (4T1.2 cells [4]) | Oct4 level (4T1.2 cells [5]) | size of mammary tumors / progression of tumors, direct administration (4T1.2 cells [6])
COc1cccc(-c2cc(NCc3ccc4c(c3)OCO4)nc(N)n2)c1 [BML284] | modestly increased | Increase | Increase | – | – | –
O=C(Nc1ccc2[nH]ccc2c1)c1ccccc1 [OAC2] | – | – | – | did not alter; also recorded: No detectable change | Elevation | did not alter; also recorded: No detectable change
